This passage reports IC50 results from ChEMBL document CHEMBL3585249, “Strongylophorines, meroditerpenoids from the marine sponge Petrosia corticata, function as proteasome inhibitors” (Bioorg Med Chem Lett, 2015).

By IC50 is commonly meant the concentration at which inhibition is half-maximal.

The nature of the assay: Inhibition of human erythrocyte 20S proteasome assessed as reduction in chymotrypsin-like activity pre-incubated for 10 mins before addition of Suc-Leu-Leu-Val-Tyr-MCA fluorogenic substrate by fluorescence based assay.
Take `CO[C@H]1OC[C@]23CCC[C@@]1(C)C2CC[C@]1(C)C3CC[C@]2(C)Oc3ccc(O)cc3CC12` (some centres undefined): the IC50 stood at 6.6 µM.
For `CCO[C@H]1OC[C@]23CCC[C@@]1(C)C2CC[C@]1(C)C3CC[C@]2(C)Oc3ccc(O)cc3CC12` (some centres undefined), the IC50 amounted to 9.3 µM.
With `C[C@@]12CC[C@@H]3[C@]4(CCC[C@]3(C)C(O)OC4)[C@H]1CC[C@](C)(O)[C@H]2Cc1cc(O)ccc1O` (some centres undefined), the IC50 worked out at 2.1 µM.
For the compound `C[C@@]12CC[C@@H]3[C@]4(CCC[C@]3(C)C(O)OC4)[C@H]1CC[C@]1(C)Oc3ccc(O)cc3C[C@@H]21` (some centres undefined), the IC50 was 3.6 µM.
For `C[C@]12CCC[C@](C)(C(=O)O)[C@@H]1CC[C@]1(C)[C@@H]2CC[C@]2(C)Oc3ccc(O)cc3C[C@@H]12` [Strongylophorin-3], the IC50 was 9.5 µM.
In the case of `CC1(C)CCC[C@]2(C)[C@H]3CC[C@]4(C)Oc5ccc(O)cc5C[C@H]4[C@]3(C)CC[C@@H]12` [Strongylophorin-22], the IC50 is over 100 µM.
For `C[C@@]12CC[C@@H]3[C@]4(CCC[C@@]3(C)C(=O)OC4)[C@H]1CC[C@]1(C)Oc3ccc(O)cc3C[C@@H]21` [strongylophorine-2], the IC50 is over 100 µM.
As for `CC(=O)[C@@]1(C)CCC[C@]2(C)[C@H]3CC[C@]4(C)Oc5ccc(O)cc5C[C@H]4[C@]3(C)CC[C@H]21` [strongylophorine-4], the IC50 turned out to be 19 µM.
The figure for `C[C@@]12CC[C@@H]3[C@]4(CCC[C@]3(C)C(=O)OC4)[C@H]1CC[C@](C)(O)[C@H]2Cc1cc(O)ccc1O` [strongylophorine-8] is 8.4 µM.
